{"source": "patent US20140221301A1", "about": "“COMBINATION TREATMENT FOR CANCER” (priority 2011, published 2014)", "key": {"[1]": {"tested_on": "TEX cells", "assay": "Apoptosis by Annexin V flow cytometry in TEX cells", "type": "cell-based, human", "conditions": "over time", "experimental": "FIG. 1. […] (A) TEX and (B) M9-ENL1 cells were plated in 96-well plates and drugs were added to the wells (5 μL per well) for final concentrations of 10 μM (shown) and 1 μM. Cell growth and viability was measured at 48 hours (M9-ENL-1) and 72 hours (TEX) by MTS assay. Cell viability is shown for each compound as a percent of cells treated with DMSO alone. (C) Leukemia, (D) myeloma, and (E) solid tumor cell lines were seeded in 96-well plates and then treated with increasing concentrations of tigecycline. Cell growth and viability was measured at 72 hours by MTS assay. Cell viability is expressed as mean percentage plus or minus SD (n=3) relative to vehicle-treated cells. […] Cell viability was measured at 72 hours by MTS assay. Cell viability is expressed as mean percentage plus or minus SD (n=3) relative to vehicle-treated cells.\n(§1) Cell growth and viability was assessed by the MTS assay (Promega, Madison, Wis.) according to the manufacturer's instructions. Apoptosis and cell death was measured by Annexin V-fluroscein isothiocyanate (FITC; Biovision Research Products, Mountain View, Calif.), propidium iodide staining and flow cytometry according to the manufacturer's instructions and as previously described^30."}, "[2]": {"tested_on": "primary AML patient samples", "assay": "Cell viability by Annexin V staining, primary AML patient samples", "type": "cell-based, human", "experimental": "as §1"}, "[3]": {"tested_on": "Cox-1, Cox-2 (mitochondrially-translated subunits I and II) over Cox-4", "assay": "Immunoblotting of cytochrome C oxidase subunits in leukemia cells", "type": "cell-based, human", "conditions": "TEX, OCI-AML2, two AML patients; 2.5 μM and 5 μM, 36 and 48 hours", "experimental": "FIG. 4. […] (A) Cells from TEX, OCI-AML2 and two primary AML patients were treated with increasing concentrations (2.5 μM and 5 μM) of tigecycline for 36 and 48 hours of tigecycline. Total proteins were extracted and analyzed by western blotting for Cox-1, Cox-2, Cox-4, grp78, XIAP, actin and tubulin. (B) TEX and AML patient cells were treated with increasing concentrations (2.5 μM and 5 μM) of tigecycline. Cox-1, Cox-2, and Cox-4 mRNA expression relative 18S was determined by quantitative RT-PCR. Data is shown as mean±SD. (C) TEX cells were treated with increasing concentrations of tigecycline and chloramphenicol (CAP) for 72 hours. Complex I, II and IV enzyme activity relative to citrate synthase activity was determined as described in materials and methods. (D) Cells from TEX, primary AML patients, and normal donors were treated with increasing concentrations of tigecycline. Mitochondrial membrane potential (ΔΨ) was determined by staining cells with JC-1 dye, and flow cytometry analysis (Red/Green ratio). Reactive oxygen species generation (ROS) was determined by staining with h2-DCFDA and Dihydroethidium (DHE).\nTotal cell lysates were prepared from cells as described previously^32. […] Protein concentrations were measured by the DC Protein assay. […]"}, "[4]": {"tested_on": "complex II", "assay": "Respiratory chain enzyme activity relative to citrate synthase, complex II", "type": "cell-based, human", "conditions": "TEX cells, 2.5 μM and 5 μM, 72 hours", "experimental": "(§2) FIG. 4. Tigecycline decreases mitochondrial Cox-1 protein levels in TEX cells. (A) Cells from TEX, OCI-AML2 and two primary AML patients were treated with increasing concentrations (2.5 μM and 5 μM) of tigecycline for 36 and 48 hours of tigecycline. Total proteins were extracted and analyzed by western blotting for Cox-1, Cox-2, Cox-4, grp78, XIAP, actin and tubulin. (B) TEX and AML patient cells were treated with increasing concentrations (2.5 μM and 5 μM) of tigecycline. Cox-1, Cox-2, and Cox-4 mRNA expression relative 18S was determined by quantitative RT-PCR. Data is shown as mean±SD. (C) TEX cells were treated with increasing concentrations of tigecycline and chloramphenicol (CAP) for 72 hours. Complex I, II and IV enzyme activity relative to citrate synthase activity was determined as described in materials and methods. […] Mitochondrial membrane potential (ΔΨ) was determined by staining cells with JC-1 dye, and flow cytometry analysis (Red/Green ratio). Reactive oxygen species generation (ROS) was determined by staining with h2-DCFDA and Dihydroethidium (DHE).\nThe effect of tigecycline treatment on enzyme activity of the respiratory chain complexes relative to the mitochondrial non-respiratory chain enzyme citrate synthase was examined. TEX leukemia cells were treated with tigecycline for […] and then respiratory chain enzyme relative to citrate synthase activity was analyzed. […]"}, "[5]": {"tested_on": "TEX cells and primary AML samples", "assay": "Mitochondrial membrane potential, JC-1, leukemia cells", "type": "cell-based, human", "conditions": "5 μM, times preceding onset of cell death", "experimental": "as §2, with “(C) TEX cells were treated with increasing concentrations of tigecycline and chloramphenicol (CAP) for 72 hours.” left out\n(§3) To measure mitochondrial membrane potential, cells were treated with tigecycline similarly as described above and then washed twice with PBS and incubated with 5 μM of 5,5′,6,6′-tetrachloro-1,1′,3,3′-tetraethyl benzimidazolylcarbocyanine iodide (JC-1, Sigma-Aldrich) for 20 minutes at 37° C. Each sample was then washed twice with 1 mL PBS and resuspended in 500 μL PBS prior to being read on a BD FACSCalibur. […]"}, "[6]": {"tested_on": "normal hematopoietic cells from G-CSF mobilized normal donors", "assay": "Mitochondrial membrane potential, JC-1, normal hematopoietic cells", "type": "cell-based, human", "conditions": "normal cells from two G-CSF mobilized donors", "experimental": "as §2, with “(C) TEX cells were treated with increasing concentrations of tigecycline and chloramphenicol (CAP) for 72 hours.” left out\nas §3"}, "[7]": {"tested_on": "bacterial protein synthesis", "conditions": "cited from earlier work"}}}
{"compound": "CN(C)c1cc(NC(=O)CNC(C)(C)C)c(O)c2c1C[C@H]1C[C@H]3[C@H](N(C)C)C(O)=C(C(N)=O)C(=O)[C@@]3(O)C(O)=C1C2=O", "note": "[tigecycline]", "values": [{"measurement": "apoptosis, percentage of cells labeled by Annexin V", "setting": "[1]", "value": "time-dependent increases in apoptosis"}, {"measurement": "relation of induced cytotoxicity to mitochondrial mass", "setting": "[2]; AML samples, 5 μM and 10 μM, 48 hours", "value": "correlates with increasing mitochondrial mass"}, {"measurement": "LD50", "setting": "[2]; more resistant group of patients, n=7, 48 hours", "value": "> 9", "unit": "µM"}, {"measurement": "LD50", "setting": "[2]; sensitive subset of leukemia patients, n=13, 48 hours", "value": 5, "unit": "µM"}, {"measurement": "protein level of mitochondrially-translated subunits I and II over nuclear-translated subunit IV", "setting": "[3]", "value": "preferential decrease"}, {"measurement": "complex II activity relative to citrate synthase", "setting": "[4]", "value": "less affected"}, {"measurement": "mitochondrial membrane potential", "setting": "[5]", "value": "decreased"}, {"measurement": "loss of mitochondrial membrane potential", "setting": "[6]", "value": "not seen"}, {"measurement": "inhibition of bacterial protein synthesis, fold greater than minocycline", "setting": "[7]; relative to minocycline", "value": 3, "unit": "fold"}, {"measurement": "inhibition of bacterial protein synthesis, fold greater than tetracycline", "setting": "[7]; relative to tetracycline", "value": 20, "unit": "fold"}]}
